Laboratory results from ChEMBL document CHEMBL1147395, “Three New Toxic Pinolidoxins from Ascochyta pinodes” (J Nat Prod, 1993).
Activity calls are given as the source filed them. The calls are words filed in the database; no cut-off is given here.

How the values were obtained:
[1] = system: Pisum sativum; assay: Phytotoxicity against pea leaves assessed as necrotic lesion at 15 ug/15 ul after 48 hrs by leaf puncture assay; assay type: functional, organism-based; conditions: Lathyrus oleraceus
[2] = system: Artemia salina; assay: Toxicity in Artemia salina at 5 ug/ml; assay type: organism-based; conditions: in vivo
[3] = system: Geotrichum candidum; assay: Antifungal activity against Geotrichum candidum up to 120 ug/ml; assay type: functional, organism-based
[4] = system: Fabaceae; assay: Phytotoxicity against beans leaves assessed as necrotic lesion at 15 ug/15 ul after 48 hrs by leaf puncture assay; assay type: functional, organism-based
[5] = system: Artemia salina; assay: Toxicity in Artemia salina at 50 ug/ml; assay type: organism-based; conditions: in vivo

`C/C=C/C=C/C(=O)O[C@H]1CCCC[C@H](O)[C@H](O)[C@@H](CCC)OC1=O` was tested, and the Activity [1] was “Toxic”, the Activity [2] was “Non-toxic” and the Activity [3] was “inactive”. For the same molecule, the Activity [4] was “Toxic”.

With `C/C=C/C=C/C(=O)O[C@H]1CCC2OC2[C@H](O)[C@H](O)[C@@H](CCC)OC1=O` (some centres undefined) the Activity [2] was “Non-toxic”, the Activity [3] was “inactive” and the Activity [5] was “Toxic”.

For `C/C=C/C=C/C(=O)O[C@H]1CC/C=C/[C@H](O)[C@H](O)[C@@H](CCC)OC1=O` [PINOLIDOXIN], the Activity [2] was “Non-toxic” and the Activity [3] was “inactive”.

With `C/C=C/C=C/C(=O)O[C@H]1CC/C=C/[C@@H](O)[C@H](O)[C@@H](CCC)OC1=O` the Activity [1] was “Toxic”, the Activity [2] was “Non-toxic” and the Activity [3] was “inactive”. For the same molecule, the Activity [4] was “Toxic” and the Activity [5] was “Toxic”.
